Data reported in article PMC4669708 (Cell Death & Disease, 2015).

Assays:
Assay in all cases: c-ponatinib pulldown LC-MS/MS
Format in all cases: binding
TAOK3 = target: T1, TAOK3 (Homo sapiens, UniProt Q9H2K8)
T1 sequence (Q9H2K8 1-898): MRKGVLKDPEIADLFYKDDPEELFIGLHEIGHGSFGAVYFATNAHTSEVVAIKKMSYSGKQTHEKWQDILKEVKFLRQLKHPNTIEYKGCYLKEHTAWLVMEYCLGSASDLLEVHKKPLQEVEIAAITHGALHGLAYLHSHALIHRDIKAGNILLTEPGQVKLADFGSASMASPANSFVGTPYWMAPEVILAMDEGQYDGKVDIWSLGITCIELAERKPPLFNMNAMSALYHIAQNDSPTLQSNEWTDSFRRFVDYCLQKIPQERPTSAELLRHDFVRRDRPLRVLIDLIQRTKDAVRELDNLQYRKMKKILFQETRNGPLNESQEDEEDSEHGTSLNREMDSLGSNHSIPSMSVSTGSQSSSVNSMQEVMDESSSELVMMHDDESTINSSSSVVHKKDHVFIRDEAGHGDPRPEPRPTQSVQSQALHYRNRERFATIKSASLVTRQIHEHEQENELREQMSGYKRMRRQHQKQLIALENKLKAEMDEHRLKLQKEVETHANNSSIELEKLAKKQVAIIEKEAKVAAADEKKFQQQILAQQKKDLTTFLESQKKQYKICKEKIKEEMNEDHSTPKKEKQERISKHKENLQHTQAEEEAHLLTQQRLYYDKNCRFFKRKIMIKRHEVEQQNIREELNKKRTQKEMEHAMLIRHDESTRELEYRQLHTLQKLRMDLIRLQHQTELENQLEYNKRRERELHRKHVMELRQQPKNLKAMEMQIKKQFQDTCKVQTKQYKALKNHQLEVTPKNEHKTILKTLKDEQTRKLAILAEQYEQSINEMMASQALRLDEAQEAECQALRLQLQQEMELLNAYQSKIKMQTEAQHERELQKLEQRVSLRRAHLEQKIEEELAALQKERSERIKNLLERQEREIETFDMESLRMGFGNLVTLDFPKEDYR
Outline: (§1)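 Affinity matrix: 25 nmol c-ponatinib/50 μl NHS-Sepharose; 10 mg whole cell lysate input; duplicate pulldowns, each run twice by LC-MS/MS. DTT/iodoacetamide, trypsin. Human SwissProt search, protein FDR <1%. Competition with free compound; fold reduction = median spectral count ratio.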

HCK = HCK (Homo sapiens, UniProt P08631)
HCK, sequence (P08631 whole entry): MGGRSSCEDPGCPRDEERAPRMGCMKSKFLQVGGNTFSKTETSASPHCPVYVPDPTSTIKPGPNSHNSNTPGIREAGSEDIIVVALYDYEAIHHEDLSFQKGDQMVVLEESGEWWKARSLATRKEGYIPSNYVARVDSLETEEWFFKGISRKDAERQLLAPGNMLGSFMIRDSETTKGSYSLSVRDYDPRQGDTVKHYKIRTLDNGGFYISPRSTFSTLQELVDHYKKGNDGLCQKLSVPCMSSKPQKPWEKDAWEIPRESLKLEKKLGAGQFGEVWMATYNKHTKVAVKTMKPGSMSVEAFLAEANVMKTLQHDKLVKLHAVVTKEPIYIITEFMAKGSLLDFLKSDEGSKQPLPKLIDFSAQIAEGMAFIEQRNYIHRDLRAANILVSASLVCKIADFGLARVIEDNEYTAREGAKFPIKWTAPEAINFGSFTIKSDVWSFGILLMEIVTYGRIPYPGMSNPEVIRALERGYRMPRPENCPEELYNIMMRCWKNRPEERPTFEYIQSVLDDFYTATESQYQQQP
Outline: as §1

RAF1 = RAF1 (Homo sapiens, UniProt P04049)
RAF1, sequence (P04049 whole entry): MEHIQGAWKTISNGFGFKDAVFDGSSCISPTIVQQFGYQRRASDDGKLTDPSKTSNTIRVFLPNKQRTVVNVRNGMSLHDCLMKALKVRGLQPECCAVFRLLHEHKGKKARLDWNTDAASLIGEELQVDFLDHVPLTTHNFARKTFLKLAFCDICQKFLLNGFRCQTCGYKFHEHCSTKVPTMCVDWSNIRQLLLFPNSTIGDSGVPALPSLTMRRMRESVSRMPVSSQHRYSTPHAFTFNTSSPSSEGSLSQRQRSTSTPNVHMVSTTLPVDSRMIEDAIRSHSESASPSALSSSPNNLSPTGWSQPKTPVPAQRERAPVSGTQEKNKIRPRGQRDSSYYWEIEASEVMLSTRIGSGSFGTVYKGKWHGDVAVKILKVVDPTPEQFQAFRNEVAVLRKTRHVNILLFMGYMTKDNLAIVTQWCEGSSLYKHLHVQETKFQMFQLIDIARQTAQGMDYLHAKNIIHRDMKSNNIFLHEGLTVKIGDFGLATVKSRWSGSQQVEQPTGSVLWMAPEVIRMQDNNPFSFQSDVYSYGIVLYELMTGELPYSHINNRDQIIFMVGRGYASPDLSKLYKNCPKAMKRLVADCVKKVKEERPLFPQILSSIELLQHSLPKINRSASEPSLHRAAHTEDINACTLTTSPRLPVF
Outline: as §1

NAP1L1 = target: T2, NAP1L1 (Homo sapiens, UniProt P55209)
T2 sequence (P55209 1-391): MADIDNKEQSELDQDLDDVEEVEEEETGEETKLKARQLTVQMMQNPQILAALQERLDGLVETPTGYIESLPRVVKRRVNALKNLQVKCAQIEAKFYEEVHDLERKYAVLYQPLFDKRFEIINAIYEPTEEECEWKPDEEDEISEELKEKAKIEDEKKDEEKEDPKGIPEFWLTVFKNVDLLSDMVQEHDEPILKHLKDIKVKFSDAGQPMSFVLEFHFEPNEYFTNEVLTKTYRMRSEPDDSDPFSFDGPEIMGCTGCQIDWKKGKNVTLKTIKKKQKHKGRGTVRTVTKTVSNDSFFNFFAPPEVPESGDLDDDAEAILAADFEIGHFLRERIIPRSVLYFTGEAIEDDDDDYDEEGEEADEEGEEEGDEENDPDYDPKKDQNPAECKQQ
Outline: as §1

**Q.** `Cc1ccc(C(=O)Nc2ccc(CN3CCN(CCCN)CC3)c(C(F)(F)F)c2)cc1C#Cc1cnc2cccnn12` [c-ponatinib] was tested. Which “Av. SC comp.” value (TAOK3; + free ponatinib) did it give?
**A.** Its value is 2.

**Q.** And the “Total SC comp.” value (TAOK3; + free ponatinib)?
**A.** Its value is 8.

**Q.** And the “Av. SC” value (TAOK3; no competitor)?
**A.** Its value is 13.

**Q.** What about the “Total SC” value (TAOK3; no competitor) of the same compound?
**A.** Its value is 52.

**Q.** And the “Av. SC comp.” value (HCK; + free ponatinib)?
**A.** The value was 0.

**Q.** And the “Total SC comp.” value (HCK; + free ponatinib)?
**A.** The value was 0.

**Q.** What about the “Av. SC” value (HCK; no competitor) of the same compound?
**A.** The value was 6.

**Q.** And the “Total SC” value (HCK; no competitor)?
**A.** Its value is 24.

**Q.** And the “Av. SC comp.” value (RAF1; + free ponatinib)?
**A.** Its value is 0.

**Q.** And the “Total SC comp.” value (RAF1; + free ponatinib)?
**A.** The value was 0.

**Q.** What about the “Av. SC” value (RAF1; no competitor) of the same compound?
**A.** The value was 1.25.

**Q.** And the “Total SC” value (RAF1; no competitor)?
**A.** The value was 5.

**Q.** And the “Av. SC comp.” value (NAP1L1; + free ponatinib)?
**A.** The value was 1.25.

**Q.** What about the “Total SC comp.” value (NAP1L1; + free ponatinib) of the same compound?
**A.** The value was 5.

**Q.** What about the “Av. SC” value (NAP1L1; no competitor) of the same compound?
**A.** The value was 2.

**Q.** And the “Total SC” value (NAP1L1; no competitor)?
**A.** The value was 8.
